Laboratory results from US20220281876A1, “DEGRADATION OF BRUTON'S TYROSINE KINASE (BTK) BY CONJUGATION OF BTK INHIBITORS WITH E3 LIGASE LIGAND AND METHODS OF USE” (BEIGENE, LTD., priority 2019, published 2022).

What follows are compounds tested against T1, BTK (Homo sapiens, UniProt Q06187) (assay: BTK cell degradation in Ramos cells (total BTK ELISA)). Details: 16 h incubation, FastScan total BTK ELISA.
T1 construct: endogenous in cells; host or cells: Ramos cells
T1 sequence (Q06187 whole entry): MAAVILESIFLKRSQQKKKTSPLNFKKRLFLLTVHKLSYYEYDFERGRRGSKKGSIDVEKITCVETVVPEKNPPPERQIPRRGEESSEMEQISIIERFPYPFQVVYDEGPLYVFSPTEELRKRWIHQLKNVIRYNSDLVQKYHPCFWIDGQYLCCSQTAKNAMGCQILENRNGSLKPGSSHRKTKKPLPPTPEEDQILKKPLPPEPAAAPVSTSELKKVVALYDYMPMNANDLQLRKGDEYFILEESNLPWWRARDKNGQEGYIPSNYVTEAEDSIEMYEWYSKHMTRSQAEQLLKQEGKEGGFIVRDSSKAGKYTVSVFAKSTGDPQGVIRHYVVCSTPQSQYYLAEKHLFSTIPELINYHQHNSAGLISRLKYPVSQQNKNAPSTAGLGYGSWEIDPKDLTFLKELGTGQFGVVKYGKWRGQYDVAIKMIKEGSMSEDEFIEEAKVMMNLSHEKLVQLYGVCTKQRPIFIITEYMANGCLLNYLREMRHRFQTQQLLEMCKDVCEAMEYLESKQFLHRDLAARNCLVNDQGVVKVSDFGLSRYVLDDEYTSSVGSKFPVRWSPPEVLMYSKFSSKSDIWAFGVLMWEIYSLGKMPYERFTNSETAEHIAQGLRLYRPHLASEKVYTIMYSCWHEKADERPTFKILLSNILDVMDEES
Assay type: cell-based
Outline: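 Ramos cells were treated for 16 h with compounds (7 doses, 5-fold dilution series, 0.1% DMSO). Total BTK in cell lysates was quantified by sandwich ELISA with TMB read-out at 450 nm.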
`CN(CCC(=O)N1CCC([C@@H]2CCNc3c(C(N)=O)c(-c4ccc(Oc5ccccc5)cc4)nn32)CC1)CC1CCN(c2ccc3c(c2)C(=O)N(C2CCC(=O)NC2=O)C3=O)CC1` (stereo partly drawn) [Example 64, (7S)-7-(1-(3-(((1-(2-(2,6-dioxopiperidin-3-yl)-1,3-dioxoisoindolin-5-yl)piperidin-4-yl)methyl)(methyl)amino)propanoyl)piperidin-4-yl)-2-(4-phenoxyphenyl)-4,5,6,7-tetrahydropyrazolo[1,5-a]pyrimidine-3-carboxamide] was tested, and the DC50 was 35 nM.
Compound `NC(=O)c1c(-c2ccc(Oc3ccccc3)cc2)nn2c1NCC[C@H]2C1CCN(C(=O)CCN2CCC(CN3CCN(c4ccc5c(c4)C(=O)N(C4CCC(=O)NC4=O)C5=O)CC3)CC2)CC1` (stereo partly drawn) [Example 95, (7S)-7-(1-(3-(4-((4-(2-(2,6-dioxopiperidin-3-yl)-1,3-dioxoisoindolin-5-yl)piperazin-1-yl)methyl)piperidin-1-yl)propanoyl)piperidin-4-yl)-2-(4-phenoxyphenyl)-4,5,6,7-tetrahydropyrazolo[1,5-a]pyrimidine-3-carboxamide] has a DC50 of 1680 nM.
`NC(=O)c1c(-c2ccc(Oc3ccccc3)cc2)nn2c1NCC[C@H]2C1CCN(C(=O)CCCC2CCC(N3CCN(c4ccc5c(c4)C(=O)N(C4CCC(=O)NC4=O)C5=O)CC3)CC2)CC1` (stereo partly drawn) [Example 148, (7S)-7-(1-(4-(4-(4-(2-(2,6-dioxopiperidin-3-yl)-1,3-dioxoisoindolin-5-yl)piperazin-1-yl)cyclohexyl)butanoyl)piperidin-4-yl)-2-(4-phenoxyphenyl)-4,5,6,7-tetrahydropyrazolo[1,5-a]pyrimidine-3-carboxamide] showed a DC50 of 205 nM.
`NC(=O)c1c(-c2ccc(Oc3ccccc3)cc2)nn2c1NCC[C@H]2C1CCN(C(=O)CCC2CCC(N3CCN(c4ccc5c(c4)C(=O)N(C4CCC(=O)NC4=O)C5=O)CC3)CC2)CC1` (stereo partly drawn) [Example 151, (7S)-7-(1-(3-(4-(4-(2-(2,6-dioxopiperidin-3-yl)-1,3-dioxoisoindolin-5-yl)piperazin-1-yl)cyclohexyl)propanoyl)piperidin-4-yl)-2-(4-phenoxyphenyl)-4,5,6,7-tetrahydropyrazolo[1,5-a] pyrimidine-3-carboxamide] showed a DC50 of 17 nM.
`NC(=O)c1c(-c2ccc(Oc3ccccc3)cc2)nn2c1NCC[C@H]2C1CCN(C(=O)CCCN2CCN(C(=O)CNc3ccc4c(c3)C(=O)N(C3CCC(=O)NC3=O)C4=O)CC2)CC1` (stereo partly drawn) [Example 152, (7S)-7-(1-(4-(4-((2-(2,6-dioxopiperidin-3-yl)-1,3-dioxoisoindolin-5-yl)glycyl)piperazin-1-yl)butanoyl)piperidin-4-yl)-2-(4-phenoxyphenyl)-4,5,6,7-tetrahydropyrazolo[1,5-a]pyrimidine-3-carboxamide] showed a DC50 of 35 nM.
`NC(=O)c1c(-c2ccc(Oc3ccccc3)cc2)nn2c1NCC[C@H]2C1CCN(C(=O)CCNc2cccc3c2C(=O)N(C2CCC(=O)NC2=O)C3=O)CC1` (stereo partly drawn) [Example 154, (7S)-7-(1-(3-((2-(2,6-dioxopiperidin-3-yl)-1,3-dioxoisoindolin-4-yl)amino)propanoyl)piperidin-4-yl)-2-(4-phenoxyphenyl)-4,5,6,7-tetrahydropyrazolo[1,5-a]pyrimidine-3-carboxamide] showed a DC50 of 637 nM.
`CN(CC1CCN(C(=O)c2ccc(N3CCC(=O)NC3=O)cc2)CC1)C1CC(C(=O)N2CCC([C@@H]3CCNc4c(C(N)=O)c(-c5ccc(Oc6ccccc6)cc5)nn43)CC2)C1` (stereo partly drawn) [Example 155, (S)-7-(1-(3-(((1-(4-(2,4-dioxotetrahydropyrimidin-1(2H)-yl)benzoyl)piperidin-4-yl)methyl)(methyl)amino)cyclobutane-1-carbonyl)piperidin-4-yl)-2-(4-phenoxyphenyl)-4,5,6,7-tetrahydropyrazolo[1,5-a]pyrimidine-3-carboxamide] showed a DC50 of 7.2 nM.
`NC(=O)c1c(-c2ccc(Oc3ccccc3)cc2)nn2c1NCC[C@H]2C1CCN(C(=O)CCN2CCC(N3CCN(c4ccc5c(c4)C(=O)N(C4CCC(=O)NC4=O)C5=O)CC3)CC2)CC1` (stereo partly drawn) [Example 156, (7S)-7-(1-(3-(4-(4-(2-(2,6-dioxopiperidin-3-yl)-1,3-dioxoisoindolin-5-yl)piperazin-1-yl)piperidin-1-yl)propanoyl)piperidin-4-yl)-2-(4-phenoxyphenyl)-4,5,6,7-tetrahydropyrazolo[1,5-a]pyrimidine-3-carboxamide] gave a DC50 of 1680 nM.
